{"source": "paper PMC6448587", "about": "(Biochemistry, 2019)", "key": {"CYP3A4 [1]": {"tested_on": "CYP3A4", "details": "ref 39 (Godamudunage et al.); cited from earlier work"}, "CYP3A4 [2]": {"molecular_target": "CYP3A4 (Homo sapiens, UniProt P08684)", "details": "human, probe 7-benzyloxy-4-(trifluoromethyl)coumarin (BFC)"}, "Δ3–22 human CYP3A4 (WT) [3]": {"molecular_target": "T1, Δ3–22 human CYP3A4 (WT) (Homo sapiens, UniProt P08684)"}, "Candida albicans CYP51 [4]": {"tested_on": "Candida albicans CYP51", "details": "read-out: Kd for Candida albicans CYP51; cited from earlier work"}, "Candida albicans CYP51 [5]": {"tested_on": "Candida albicans CYP51", "details": "read-out: IC50 for Candida albicans CYP51; cited from earlier work"}, "S119A mutant of CYP3A4 [6]": {"molecular_target": "T2, S119A mutant of CYP3A4 (Homo sapiens, UniProt P08684, S119A)"}, "full-length human CYP3A4 [7]": {"molecular_target": "T3, full-length human CYP3A4 (Homo sapiens, UniProt P08684)"}, "Δ3–22 human CYP3A4 (WT) [8]": {"molecular_target": "T1, Δ3–22 human CYP3A4 (WT)", "assay": "biochemical"}, "R212A mutant of CYP3A4 [9]": {"molecular_target": "T4, R212A mutant of CYP3A4 (Homo sapiens, UniProt P08684, R212A)"}, "S119A mutant of CYP3A4 [10]": {"molecular_target": "T2, S119A mutant of CYP3A4", "assay": "biochemical"}, "R212A mutant of CYP3A4 [11]": {"molecular_target": "T4, R212A mutant of CYP3A4", "assay": "biochemical"}, "full-length human CYP3A4 [12]": {"molecular_target": "T3, full-length human CYP3A4", "remark": "listed apart in the source"}, "[13]": {"details": "pH 7.5; cited from earlier work"}}, "note": "Like-named read-outs stand apart in the source and are kept apart here."}
{"molecule": "OC(Cn1cncn1)(Cn1cncn1)c1ccc(F)cc1F", "note": "[Fluconazole]", "values": [{"measurement": "IC50", "setting": "CYP3A4 [1]", "result": "[…]"}, {"measurement": "IC50", "setting": "CYP3A4 [2]", "result": 21, "unit": "µM"}, {"measurement": "Type of spectral changes induced during equilibrium titrations", "setting": "Δ3–22 human CYP3A4 (WT) [3]; WT CYP3A4", "result": "[…]"}, {"measurement": "Kd", "setting": "Candida albicans CYP51 [4]", "result": 47, "unit": "nM"}, {"measurement": "IC50", "setting": "Candida albicans CYP51 [5]", "result": "600 to 1200", "unit": "nM"}]}
{"molecule": "CC(C)(C(=O)c1cccnc1)c1cccnc1", "note": "[Metyrapone]", "values": [{"measurement": "Decrease in ΔAmax relative to WT", "setting": "S119A mutant of CYP3A4 [6]; S119A vs WT", "result": 9, "unit": "%"}, {"measurement": "Increase in Ks relative to WT", "setting": "S119A mutant of CYP3A4 [6]; S119A vs WT", "result": 42, "unit": "%"}, {"measurement": "IC50", "setting": "full-length human CYP3A4 [7]", "result": "18 ± 2", "unit": "µM"}, {"measurement": "IC50 estimate relative to that for microsomal CYP3A4 (fold higher)", "setting": "full-length human CYP3A4 [7]; reconstituted system vs microsomal CYP3A4 (ref 21)", "result": 3, "unit": "fold"}, {"measurement": "Kd", "setting": "Δ3–22 human CYP3A4 (WT) [8]", "result": "2400 ± 100", "unit": "nM"}, {"measurement": "Decrease in Ks relative to WT", "setting": "R212A mutant of CYP3A4 [9]; R212A vs WT", "result": 33, "unit": "%"}, {"measurement": "Decrease in ΔAmax relative to WT", "setting": "R212A mutant of CYP3A4 [9]; R212A vs WT", "result": 6, "unit": "%"}, {"measurement": "Type of spectral changes induced during equilibrium titrations", "setting": "Δ3–22 human CYP3A4 (WT) [3]; WT CYP3A4", "result": "type II"}, {"measurement": "Kd", "setting": "S119A mutant of CYP3A4 [10]", "result": "3.4 ± 0.1", "unit": "µM"}, {"measurement": "Kd", "setting": "R212A mutant of CYP3A4 [11]", "result": "1600 ± 100", "unit": "nM"}]}
{"molecule": "O=S(=O)(O)Cc1ccccc1", "note": "[PMSA, phenylmethanesulfonic acid]", "values": [{"measurement": "Spectral changes in the presence of ligand", "setting": "S119A mutant of CYP3A4 [6]", "result": "neither mutant exhibits spectral changes"}, {"measurement": "Effect on CYP3A4 activity (inhibitory assays), in words", "setting": "full-length human CYP3A4 [12]", "result": "only negligibly affects CYP3A4 activity"}, {"measurement": "IC50", "setting": "full-length human CYP3A4 [12]", "result": "> 20", "unit": "mM"}, {"measurement": "Spectral changes in the presence of ligand", "setting": "R212A mutant of CYP3A4 [9]", "result": "neither mutant exhibits spectral changes"}, {"measurement": "Fold lower affinity for CYP3A4 than PMSF", "setting": "Δ3–22 human CYP3A4 (WT) [3]", "result": "~ 6 fold"}, {"measurement": "Type of spectral changes induced during equilibrium titrations", "setting": "Δ3–22 human CYP3A4 (WT) [3]", "result": "type I"}, {"measurement": "Kd", "setting": "Δ3–22 human CYP3A4 (WT) [3]; pH 7.4", "result": "15.4 ± 2.06", "unit": "mM"}]}
{"molecule": "O=S(=O)(F)Cc1ccccc1", "note": "[PMSF, phenylmethylsulfonyl fluoride]", "values": [{"measurement": "High-spin shift relative to WT", "setting": "S119A mutant of CYP3A4 [6]; S119A variant", "result": "~ 30 % of WT"}, {"measurement": "Fold decrease in binding affinity by mutation", "setting": "S119A mutant of CYP3A4 [6]; S119A vs WT", "result": 4, "unit": "fold"}, {"measurement": "t1/2 in aqueous solutions", "setting": "[13]", "result": 55, "unit": "min"}, {"measurement": "Fold decrease in binding affinity by mutation", "setting": "R212A mutant of CYP3A4 [9]; R212A vs WT", "result": 4, "unit": "fold"}, {"measurement": "Type of spectral changes induced during equilibrium titrations", "setting": "Δ3–22 human CYP3A4 (WT) [3]; WT CYP3A4", "result": "type I"}]}
